Data on twelve molecules can be found in PubChem BioAssay (NCI).

Molecules are shown by their SMILES. Several values for one entry are separate records, joined by “and”; a condition that tells them apart may be missing. Identical values can stand only once.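 Exposure lasted 48 hours, with cells grown in 96-well plates and compounds tested at five concentrations. Abbreviation: GI50, concentration required for 50% inhibition of growth. TGI is the concentration that stops growth completely.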 Some results are limits rather than exact numbers.

Test systems include NCI-H226 lung; SK-MEL-5 melanoma; M14 melanoma; U251 CNS; HL-60(TB) leukemia; SK-OV-3 ovarian; OVCAR-3 ovarian; UO-31 renal; A549 NSCLC; OVCAR-5 ovarian.
Common to all, as to experiment: inhibition of tumour cell growth, NCI panel, 48 h

With `N/C=N/S(=O)(=O)c1ccc(NC(=O)COC(=O)c2cccc3c(=O)c4ccccc4[nH]c23)cc1`, the TGI in the assay with NCI-H226 lung, in the assay on SK-MEL-5 melanoma, in the assay on M14 melanoma, in the assay on U251 CNS, with HL-60(TB) leukemia and in the assay with SK-OV-3 ovarian was more than 100 µM each time. Further, the TGI with OVCAR-3 ovarian, in the assay on UO-31 renal and in the assay on A549 NSCLC was more than 100 µM in each case.
As to `CCc1ccccc1NC(=O)C(=O)C(C#N)c1ccccc1Cl` (stereo not given), the TGI in the assay with NCI-H226 lung, in the assay on OVCAR-5 ovarian, in the assay on SK-MEL-5 melanoma, with M14 melanoma, in the assay with U251 CNS and in the assay on HL-60(TB) leukemia was more than 100 µM throughout. Besides, the TGI with OVCAR-3 ovarian, with UO-31 renal and in the assay on A549 NSCLC was more than 100 µM each time.
Consider `O=Cc1cccc2ccc3ccccc3c12`, for which the TGI turned out to be 74.8 µM in the assay with NCI-H226 lung; 39.6 µM with SK-MEL-5 melanoma; 49.4 µM in the assay on M14 melanoma; 58.7 µM with U251 CNS; 46.5 µM with SK-OV-3 ovarian; 40.4 µM in the assay with OVCAR-3 ovarian. The TGI is more than 100 µM in the assay on UO-31 renal and 85.3 µM with A549 NSCLC.
Regarding `Oc1c(C(Nc2ccccn2)c2cccc(Oc3ccccc3)c2)ccc2cccnc12` (stereo not given), the GI50 in the assay with NCI-H226 lung is 1.36 µM; in the assay on OVCAR-5 ovarian, 0.515 µM; in the assay with SK-MEL-5 melanoma, 0.388 µM; in the assay with U251 CNS it was 0.362 µM; with HL-60(TB) leukemia, 0.432 µM; in the assay with SK-OV-3 ovarian, 0.836 µM. The GI50 in the assay with OVCAR-3 ovarian was 0.56 µM; in the assay on UO-31 renal it was 0.382 µM; in the assay on A549 NSCLC, 0.544 µM. In addition, the TGI came out at 9.32 µM in the assay with NCI-H226 lung; 12.6 µM with OVCAR-5 ovarian; 2.16 µM in the assay on SK-MEL-5 melanoma; 14 µM in the assay with U251 CNS; 37 µM in the assay with HL-60(TB) leukemia; 15.6 µM with SK-OV-3 ovarian. Besides, the values for the TGI in the assay on OVCAR-3 ovarian, with UO-31 renal and in the assay with A549 NSCLC were 13.4 µM, 3.11 µM and 20 µM, respectively.
With `O=C(C=Nc1ccccc1C(=O)[O-])c1cccs1.O=C(C=Nc1ccccc1C(=O)[O-])c1cccs1.[Ni+2]`, the TGI in the assay on OVCAR-5 ovarian, in the assay on M14 melanoma, with U251 CNS, in the assay with HL-60(TB) leukemia, in the assay with SK-OV-3 ovarian and with OVCAR-3 ovarian was more than 100 µM each time. Further, the TGI in the assay with UO-31 renal and in the assay with A549 NSCLC was more than 100 µM in each case.
With `COC(=O)Cc1c([C@@]2(C)CCCC(C)(C)C2)ccc2c1C(=O)OC2`, the TGI in the assay with NCI-H226 lung stood at 28.4 µM; in the assay on SK-MEL-5 melanoma it was 25.6 µM; with M14 melanoma, 26.1 µM; in the assay with U251 CNS, 29.7 µM; in the assay with HL-60(TB) leukemia, 13.3 µM; in the assay on SK-OV-3 ovarian, 32.3 µM. Besides, the TGI came to 20.7 µM in the assay with OVCAR-3 ovarian, 15.3 µM with UO-31 renal and 32.4 µM in the assay on A549 NSCLC.
Regarding `O=C(CCCn1c2c(sc3ccccc32)c(=O)n2nnc(-c3ccccc3)c12)NCCc1cnc[nH]1`, the GI50 was 4.43 µM in the assay with NCI-H226 lung; 0.0751 µM in the assay on OVCAR-5 ovarian; 1.84 µM in the assay on SK-MEL-5 melanoma; 0.128 µM with U251 CNS; 0.0724 µM in the assay on HL-60(TB) leukemia; 2 µM in the assay on SK-OV-3 ovarian. For the same molecule, the results for the GI50 in the assay on OVCAR-3 ovarian and in the assay on UO-31 renal were 2.01 µM and 1.42 µM, respectively. In addition, the TGI in the assay with NCI-H226 lung came to 14.1 µM; with OVCAR-5 ovarian it was 1.51 µM; with SK-MEL-5 melanoma, 11.4 µM; in the assay with U251 CNS, 1.75 µM; in the assay with HL-60(TB) leukemia it was 3.21 µM; in the assay on SK-OV-3 ovarian, 6.04 µM. Moreover, the TGI with OVCAR-3 ovarian was 5.41 µM; in the assay on UO-31 renal, 2.95 µM.
For the molecule `Nc1nc(N)c(CCCCc2ccccc2)c(C=O)n1`, the TGI was 53.7 µM in the assay with NCI-H226 lung; more than 100 µM in the assay on OVCAR-5 ovarian; 34.9 µM in the assay with SK-MEL-5 melanoma; 44.1 µM in the assay on M14 melanoma; 49.6 µM in the assay with U251 CNS; 95.5 µM with SK-OV-3 ovarian. The TGI is 32.6 µM in the assay on OVCAR-3 ovarian, 45.4 µM with UO-31 renal and more than 100 µM with A549 NSCLC.
On to `O=C1/C(=C/c2ccc([N+](=O)[O-])s2)Oc2cc(Cl)ccc21`, for which the GI50 in the assay on NCI-H226 lung is 3.83 µM; in the assay with SK-MEL-5 melanoma, 1.2 µM; with U251 CNS, 1.02 µM; with SK-OV-3 ovarian it was 23.5 µM; in the assay on OVCAR-3 ovarian, 0.325 µM; with UO-31 renal, 0.317 µM. Besides, in the assay on A549 NSCLC, the GI50 was 2.67 µM. Also, the TGI in the assay on NCI-H226 lung was more than 21.8 µM; with SK-MEL-5 melanoma it was 2.57 µM; with U251 CNS, 2.21 µM; with SK-OV-3 ovarian, more than 100 µM; with OVCAR-3 ovarian, 0.898 µM; in the assay on UO-31 renal, 1.22 µM. Besides, the TGI with A549 NSCLC is more than 100 µM.
On to `NC1N=Nc2ccccc21` (stereo not given), for which the TGI with NCI-H226 lung, with OVCAR-5 ovarian, in the assay with M14 melanoma, in the assay with U251 CNS, with HL-60(TB) leukemia and with SK-OV-3 ovarian was more than 100 µM in each case. The TGI in the assay on OVCAR-3 ovarian, in the assay on UO-31 renal and in the assay with A549 NSCLC was more than 100 µM throughout.
On to `COc1cc2c(c(O)c1Cl)C(=O)c1c(O)cc(C[C@H](C)O)cc1[C@H]2[C@H]1c2cc(C[C@H](C)O)cc(O)c2C(=O)c2c1cc(OC)c(Cl)c2O`, for which the TGI is 75 µM and 98.1 µM in the assay on NCI-H226 lung; 75 µM and > 100 µM in the assay with M14 melanoma; 75 µM and > 100 µM in the assay on A549 NSCLC.
In the case of `CC1(C)CC(=O)C=C(/C=C/Sc2c(Cl)c(Cl)nc(Cl)c2Cl)C1`, the GI50 is 12.7 µM in the assay with NCI-H226 lung; 14.5 µM with OVCAR-5 ovarian; 11.8 µM in the assay with SK-MEL-5 melanoma; 11.7 µM in the assay with M14 melanoma; 14.8 µM with U251 CNS; 19.9 µM in the assay on SK-OV-3 ovarian. Also, the GI50 with OVCAR-3 ovarian was 2.6 µM; in the assay with UO-31 renal it was 10 µM; in the assay on A549 NSCLC it was 15.4 µM. In addition, the TGI with NCI-H226 lung amounted to 29 µM; in the assay with OVCAR-5 ovarian, 29.7 µM; in the assay with SK-MEL-5 melanoma it was 24.4 µM; in the assay on M14 melanoma, 24.2 µM; with U251 CNS, 28.5 µM; with SK-OV-3 ovarian, 34.8 µM. For the same molecule, the TGI was found to be 8.29 µM with OVCAR-3 ovarian, 33.4 µM in the assay with UO-31 renal and 29.8 µM with A549 NSCLC.
